# Source: ChEMBL document CHEMBL1158263, “A New Prenylated Flavone from Artocarpus champeden” (J Nat Prod, 1996)
# Assay: Toxicity against Artemia salina
# Format: organism-based
# Details: in vivo
structure (smiles),measurement,value
CC(C)=CC1Oc2cc(O)c(O)cc2-c2oc3cc(O)cc(O)c3c(=O)c21 (stereo unspecified) [CYCLOCHAMPEDOL],LC50,15.1 µg/mL
